{"source": "paper PMC6272715", "about": "“Discovery of Novel Small Molecule Anti-HCV Agents via the CypA Inhibitory Mechanism Using O-Acylation-Directed Lead Optimization” (Molecules, 2015)", "key": {"HCV Con1-1b replicon": {"tested_on": "HCV Con1-1b replicon", "assay": "HCV Con1-1b subgenomic replicon assay", "type": "cell-based", "conditions": "Hepatitis C virus; Table 4; read-out: Anti-HCV Activity EC50 ± SD Replicon Assay Con1-1b"}, "hERG channels": {"target": "T1, hERG channels (Homo sapiens, UniProt Q12809)", "T1 construct": "expressed in transfected cells; host or cells: CHO cells, stably transfected", "T1 sequence (Q12809 whole entry)": "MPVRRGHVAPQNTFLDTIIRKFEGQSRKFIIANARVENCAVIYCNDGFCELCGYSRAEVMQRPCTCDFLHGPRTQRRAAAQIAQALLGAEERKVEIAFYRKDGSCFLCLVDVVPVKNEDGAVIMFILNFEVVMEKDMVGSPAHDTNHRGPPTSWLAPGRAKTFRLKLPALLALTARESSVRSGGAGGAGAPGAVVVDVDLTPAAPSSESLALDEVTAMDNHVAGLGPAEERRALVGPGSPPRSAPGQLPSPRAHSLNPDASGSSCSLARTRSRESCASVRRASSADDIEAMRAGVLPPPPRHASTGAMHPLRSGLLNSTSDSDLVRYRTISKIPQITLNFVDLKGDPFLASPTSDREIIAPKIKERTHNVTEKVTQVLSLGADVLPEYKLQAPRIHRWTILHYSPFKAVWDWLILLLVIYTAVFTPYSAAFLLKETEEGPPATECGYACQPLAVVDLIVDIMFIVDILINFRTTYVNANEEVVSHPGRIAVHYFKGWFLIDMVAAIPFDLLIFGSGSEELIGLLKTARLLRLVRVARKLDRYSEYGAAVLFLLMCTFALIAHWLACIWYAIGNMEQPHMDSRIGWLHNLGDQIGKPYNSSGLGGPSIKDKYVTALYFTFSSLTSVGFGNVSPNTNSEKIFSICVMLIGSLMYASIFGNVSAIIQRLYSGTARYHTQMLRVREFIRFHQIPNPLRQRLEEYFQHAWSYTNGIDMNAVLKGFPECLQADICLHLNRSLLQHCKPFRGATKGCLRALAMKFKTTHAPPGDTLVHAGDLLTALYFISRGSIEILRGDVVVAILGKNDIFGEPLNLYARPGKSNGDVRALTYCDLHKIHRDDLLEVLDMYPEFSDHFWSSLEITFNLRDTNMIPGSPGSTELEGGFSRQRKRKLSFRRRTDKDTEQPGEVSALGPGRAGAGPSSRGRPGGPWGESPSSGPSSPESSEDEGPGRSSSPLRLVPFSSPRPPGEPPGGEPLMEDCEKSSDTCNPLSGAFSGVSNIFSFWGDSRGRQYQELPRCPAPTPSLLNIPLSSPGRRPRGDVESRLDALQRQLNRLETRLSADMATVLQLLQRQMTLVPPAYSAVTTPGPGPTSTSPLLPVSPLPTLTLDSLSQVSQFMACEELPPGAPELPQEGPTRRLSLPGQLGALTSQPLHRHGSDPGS", "assay": "hERG cardiac toxicity assay (automated QPatch, CHO cells expressing hERG)", "type": "cell-based", "conditions": "QPatch whole-cell recording", "protocol": "After intravenous administration, blood samples (0.2 mL) were collected at designated time points (0, 5, 15, 30, 45 min, 1, 2, 3, 5, 8, 12 and 24 h) from the eye venous sinus of the rats. The blood samples were centrifuged at 14800 rpm for 10 min to obtain the plasma fraction. The plasma samples were kept frozen (−20 °C) until analysis by a liquid chromatography-tandem mass spectrometry (LC-MS/MS).\nTable S3. Pharmacokinetic parameters after intravenous administration of 25 to SD rats at […]\nPharmacokinetic Parameters 25 (Intravenous Injection of 2 mg 25/kg) Rat 1 Rat 2 a Rat 3 Mean ± SD […]\n1 (intravenous injection of 2mg 25/kg) Rat 1 Rat 2 a Rat 3 Mean ± SD […]\na Rat 2: parts of the sample of 25 was injected into the subcutaneous tissues which lead to the uncertainty of the plasma concentration, so this rat was not incorporated into the calculation of pharmacokinetic parameters; b Cmax: maximum plasma concentration taken directly from measured values; c Tmax: time to reach Cmax; d AUC0-∞: integrated area under plasma concentration vs. time curve from time 0 to time infinity; e MRT: mean residence time; f t1/2: half-life. g N: parts of the data below the LLOQ, that result in the uncertainty of the pharmacokinetic parameters. hERG Cardiac Toxicity Assay of Compound 25 […]\nAfter achieving break-in (whole-cell) configuration, the cells were recorded for 120 s to assess current stability. […]"}}}
{"smiles": "CCCCCCCC(=O)Oc1cccc(O)c1C(=O)NC(=O)NC1c2ccccc2-c2ccccc21", "note": "[Compound 25, 1-(2-Hydroxy-6-n-Octanoyloxybenzoyl)-3-(9H-fluoren-9-yl)-urea]", "values": [{"measurement": "EC50", "setting": "HCV Con1-1b replicon", "value": "810 ± 240", "unit": "nM"}, {"measurement": "IC50", "setting": "hERG channels", "value": "> 15000", "unit": "nM"}]}
